Drawing on ChEMBL document CHEMBL1156372, “New halogenated marine prostanoids with cytotoxic activity from the Okinawan soft coral Clavularia viridis” (J Nat Prod, 2001), this text covers IC50 for one molecule.

Structures are written as SMILES. In brackets after ≈: the same amount, converted by molar mass.

Usually IC50 stands for the concentration at which inhibition is half-maximal. Low readings indicate greater potency in that assay, high ones weaker potency in that assay.

Common to all, as to format: functional, cell-based
One experiment deals with MOLT-4. In words: Cytotoxicity against human MOLT4 cells by MTT assay. A general note: Tetrazolium assays rely on reduction of a dye to a coloured formazan, in cell work by metabolically active cells.
For another experiment, the system named is DLD-1. In words: Cytotoxicity against human DLD1 cells by MTT assay.
The test system of another experiment is IMR-90. In words: Cytotoxicity against human IMR90 cells by MTT assay.

As to `CCCCC/C=C\C[C@@]1(O)C=C(I)C(=O)[C@@H]1[C@H](/C=C\CCCC(=O)OC)OC(C)=O`, the half-inhibitory concentration (IC50) in the experiment on MOLT-4 is 0.52 µg/mL (≈ 0.977 µM); in the experiment on DLD-1, 0.6 µg/mL (≈ 1.13 µM); in the experiment on IMR-90, 4.5 µg/mL (≈ 8.45 µM).
